From patent US9669112B2, “Animal model of neuronal injury” (The J. David Gladstone Institutes, priority 2012, dated 2017) come the findings set out here.

The test system of one assay is corpus callosum. Briefly: Demyelination and microglial activation after stereotactic injection into the corpus callosum. Type of assay: in vivo, mice. An excerpt:
Fibrinogen was stereotactically injected at physiological concentrations into the corpus callosum.
The experiment described in Example 4 was repeated using different mouse strains to investigate the possibility that the neuronal damage induced by fibrinogen was limited to mice with particular genetic backgrounds. […] This is particularly significant as in the traditional model for multiple sclerosis, experimental allergic encephalomyelitis (EAE), different strains of mice show varying degrees of susceptibility to EAE. EAE is a T cell-mediated autoimmune disease that can be induced in experimental animals by immunization with myelin antigens. The susceptibility to myelin antigens ranges from highly susceptible SJL/J mice to resistant B10.S mice.

Another assay has as its system spinal cord. Briefly: Demyelination and microglia activation after stereotactic injection into the spinal cord. Type of assay: in vivo, wild-type mice. The following applies: single injection at physiological concentrations; after 7 days. From the text: Either ACSF or fibrinogen was stereotactically injected at physiological concentrations into the spinal cord of wild-type mice (each Group n=3-4). […] The % area for IBA-1 staining indicates a percentage of the mean area of CD3 or IBA-1 immunoreactivity in the predefined area on spinal cord sections.

The subject of assay [1] is microglia. Nature of the assay: Acute microglial responses in vivo after injection into the cortex with a glass microelectrode. Also on record: species or system Cx3cr1GFPI+ mice. The procedure: To directly address whether fibrinogen alone was sufficient to trigger acute microglial responses in the CNS, fibrinogen was injected into the cortex of Cx3cr1GFPI+ mice using a glass microelectrode. Control electrodes were also used containing ACSF or albumin (5 mg/ml). Injection of […] of a 3-6 mg/ml fibrinogen solution, which approximates the physiological concentration of fibrinogen in plasma, caused rapid extension of microglial processes toward the tip of the electrode within […] of the injection. The size of the fibrin deposit remains unaltered, and the microglial response to fibrin persists for at least 6 hours.
The levels of microglia were quantified in vivo usingantibodies against IBA-1 (Ahmed Z, supra).

Assay [2] relates to neurons in the dentate gyrus. Nature of the assay: NeuN and IBA-1 antibody staining of hippocampus after injection in the dentate gyrus. Type of assay: in vivo, mice. The following applies: 5 μg in dentate gyrus, day 7 post injection.
The next assay relates to dendritic spines. Nature of the assay: Golgi staining of dendritic spines after stereotactic injection into the cortex. Type of assay: in vivo. The following applies: 3 days later, compared to ACSF controls. From the text: Fibrinogen injection in the cortex reduces dendritic spine density. Dendritic spines are the major site of excitatory synaptic inputs in the brain (Nimchinsky E A, et al., Annu Rev Physiol. 64:313-353). Novel spine formation and pre-existing spine elimination reflect the structural consequences of dynamic changes in neuronal activity at the cellular level (Grutzendler J & Gan W B (2006) NeuroRx 3(4):489-496; Trachtenberg J T et al., (2002) Nature 420(6917):788-794; Grutzendler J et al. (2002) Nature 420(6917):812-816.). Thus, dynamic changes in spine numbers and morphology are considered the cellular mechanisms underlying memory and learning (Holtmaat A et al. (2006) Nature 441 (7096):979-983). To assess the effect of a local concentration of fibrinogen on spine morphology, we injected fibrinogen by stereotactic injection into the cortex, and the brains were examined 3 days later by Golgi staining. Fibrinogen reduced the density of dendritic spines by 33%, compared to ACSF controls (FIG. 4).

In assay [3] the test system is microglia. Briefly: Microglial activation 3 days after stereotactic injections of fibrinogen or plasma. Type of assay: in vivo, mice. To be noted: 3 days after stereotactic injection; fibrinogen 6-10 mg/ml. On the procedure:
FIG. 8 is a bar graph illustrating the quantification of microglial immunoreactivity from mouse brain sections 3 days after stereotactic injections of fibrinogen, ACSF or albumin protein control, or plasma isolated from wt, Fib-l-, Fib_390-396A mice (n=6 mice per condition). The bar graph represents the mean (*P<0.05, **P<0.01, one-way ANOVA).
Higher concentrations of fibrinogen were introduced (6-10 mg/ml), as well as ACSF, albumin, or plasma isolated from wt, Fib-l-, Fib_390-396A mice (n=6 mice per condition).

In assay [4] the test system is wild-type mice. Nature of the assay: Contextual fear conditioning test after stereotactic injection in the dentate gyrus. To be noted: single injection 5 μg in dentate gyrus; day 7 post-injection; vs ACSF. Type of assay: in vivo. The procedure:
To assess the effect of an increase in the local concentration of fibrinogen in a specific region of interest in the brain, mice received a single stereotactic injection of either 5 μg fibrinogen (1 μl of 5 mg/ml fibrinogen) or 1 μl control (ACSF) in the dentate gyrus. The effects on memory retrieval were assessed in the contextual fear conditioning test (Riley C et al., (2012) Expert review of neurotherapeutics 12(3):323-333.). Mice were placed in a novel environment and given a brief foot shock (training day; day 6 post injection). Memory was assessed by placing the mice in the same environment again one day after the training day (testing day, day 7 post-injection) and freezing (anxiety) behavior was recorded. Percentage of freezing is a direct measure of memory retrieval.

Assay [5] relates to wild-type mice. Nature of the assay: Morris water maze after chronic intracerebroventricular infusion of fibrinogen. Type of assay: in vivo. To be noted: ICV infusion 5 mg/ml, 14-day Alzet pump; tested 24 hours after last learning trial; vs ACSF. On the procedure:
Fibrinogen was delivered to the central nervous system (CNS) of wild-type mice by ICY. Briefly, fibrinogen (5 mg/ml) or artificial cerebrospinal fluid (ACSF), a control, was infused into the CNS of the mice using 14-day Alzet pumps through a cannula implanted in the right lateral ventricle. The concentration of the fibrinogen solution was selected based on its physiological range in the plasma. Five days after pump implantation, the mice were trained in the Morris water maze and tested after removal of the target platform 24 hours after the last learning trial. […] To control for visual discriminative ability, the same mice located a clearly visible black platform 2 h after the last trial.

“Also recorded” adds a separate entry of the source. Bounds are passed on as bounds.

In the case of fibrinogen, in the assay with corpus callosum (C57BL/6 mice (B6)), the “demyelination in the corpus callosum” value is on record as “significant demyelination” and the “microglial activation in the corpus callosum” value is recorded as “microglial activation”. In the assay on corpus callosum (SJL/J mice (SJL)), the “demyelination in the corpus callosum” value is on record as “significant demyelination” and the “microglial activation in the corpus callosum” value is listed as “microglial activation”. For the same substance, in the assay on corpus callosum (corpus callosum injection), the “time to induction of microglial activation” value was at most 1 days. The “demyelination in the corpus callosum” value with corpus callosum (single injection at physiological concentrations, after 7 days) is “induced demyelination”. In addition, in the assay with spinal cord, the “demyelination in the spinal cord” value is “spontaneously induced demyelination” and the “microglia activation in the spinal cord (IBA-1 staining)” value is “microglia activation”. For the same substance, in the assay with microglia [1] (3-6 mg/ml, compared to ACSF or albumin), the “microglial responses (quantification)” value is “robust and statistically significant increase”. In the assay with microglia [1] (5-10 μl of 3-6 mg/ml solution into cortex), the “persistence of microglial response to fibrin” value was “at least 6 hours”. The “microglial activation (IBA-1 antibody staining)” value in assay [2] (hippocampal tissue) was “increased microglial activation; also recorded: increase in IBA-1 staining”. In addition, the “NeuN immunoreactivity (neuronal loss)” value in assay [2] (hippocampus) is “dramatic decrease; also recorded: reduction in NeuN staining”. Besides, the “reduction of density of dendritic spines” value in the assay on dendritic spines came out at 33%. In the assay with microglia [3], the “microglial activation 3 days after injection” value is given as “formed a deposit that is surrounded by microglial processes”. Also, the “percentage of freezing (memory retrieval)” value in the assay on wild-type mice [4] is “significant decrease; also recorded: impaired memory retrieval”. Further, in the assay with wild-type mice [5], the “memory recall (crossings of the target platform, time spent in the target quadrant)” value is reported as “impaired memory recall”.
